This assay in a line: Cytotoxicity against human KBVIN cells. The class given is functional, cell-based.

The structures appear in SMILES notation. ≈ marks a conversion by molar mass, not a printed value.

The EC50 is the concentration at which the effect is half-maximal. `COc1cc([C@@H]2c3cc4c(cc3[C@@H](O[C@@H]3O[C@@H]5CO[C@@H](C)O[C@H]5[C@H](O)[C@H]3O)[C@H]3COC(=O)[C@H]23)OCO4)cc(OC)c1O` [ETOPOSIDE] displayed an EC50 of 8.8 µg/mL (≈ 15 µM).

These data come from ChEMBL document CHEMBL2331517, “Songaricalarins A-E, cytotoxic oplopane sesquiterpenes from Ligularia songarica” (J Nat Prod, 2013).
